Measured values as given in US11083716B2 (Achieve Life Sciences, Inc., priority 2019, dated 2021).
Read-outs that look alike come from different tables or passages of the source.

Assays:
[1] = tested on: adults smoking 10+ cigarettes daily
Description: This was a six-arm, multi-center, double-blind, randomized, placebo-controlled study conducted in male or female adults years of age, smoking 10+ cigarettes daily, and willing to set a quit date that is 5-7 days after randomization. […] The study also evaluated the effectiveness of a simplified TID dosing schedule for 1.5 mg and an increased dose of 3.0 mg (using both the commercial titration (COM) and simplified TID dosing schedules).
Study treatment started the day after randomization such that study treatment was initiated prior to the quit date, as shown in FIG. 3.
The primary efficacy endpoint for this study was the percent reduction in the number of cigarettes smoked during treatment, which was calculated as follows:
[formula] where N=total number of cigarettes smoked, B=number of cigarettes smoked at baseline and D=number of days.
The primary outcome (Cigarette Score) and the main secondary abstinence outcomes were subjected to sensitivity analyses. The main secondary abstinence outcomes were the initial quit rate at Week 4 and continued 4-week abstinence through Week 5 to Week 8, confirmed by expired CO of <10 ppm designated as Cess/W5-8/CO Success.
The primary outcome was based on the number of cigarettes smoked on each day from a diary. The Cigarette Score used the diary data for the planned 25 days while on study treatment. Presented are sensitivity analyses for the comparison of the 3.0 mg TID arm and the pooled placebo arm related to variations on the primary analysis of Cigarette Score. The alternative definition of the Cigarette Score featured cigarettes recorded in the diary after the planned quit period of Days 5-7, that is, from Day 8 onward, instead of from Day 1 onward.
Another alterative analysis was based on re-analyses of the primary Cigarette Score and the above alternative Cigarette Score, with a weight related to the standard error of the mean number of cigarettes estimated from the diary entries. The weight used for each subject was 1/(SE)^2, where SE is the standard error of the mean estimate, and this type of weighting, referred to as inverse variance weighting, is used commonly. This weighting gives greater weight to means that are estimated with a smaller SE. A small modification to this definition of weight was necessary, however. In computing 1/(SE)^2, a specific rule was used when SE=0, specifically when all diary entry values were equal. In these cases, the SE was computed as if one and only one of the recorded values was larger by one. It can be shown that when this modification to the data is made SE=1/N, where N is the number of the subjects daily (days) entries.

[2] = target: alpha4, beta2 (α4β2) receptors (Homo sapiens, UniProt P17787+P43681); details: cited from earlier work
[3] = tested on: smokers; details: cited from earlier work
[4] = tested on: smokers; details: cited from earlier work; remark: listed apart in the source
[5] = Cochrane (n > 7000); cited from earlier work
[6] = 1.5 mg Downward Titration (n = 51)
[7] = 3.0 mg Downward Titration (n = 50)
[8] = end of treatment, 12 weeks (EAGLES)
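Wherever TEAE: Abnormal dreams, subjects n (%) is given: multicenter double-blind randomized placebo-controlled trial in adult smokers of 10 or more cigarettes per day, counting subjects with treatment-emergent adverse events per arm.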
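Wherever TEAE: At least 1 AE, subjects n (%) is given: multicenter double-blind randomized placebo-controlled trial in adult smokers of 10 or more cigarettes per day, counting subjects with treatment-emergent adverse events per arm.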
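Wherever TEAE: Fatigue, subjects n (%) is given: multicenter double-blind randomized placebo-controlled trial in adult smokers of 10 or more cigarettes per day, counting subjects with treatment-emergent adverse events per arm.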
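Wherever TEAE: Headache, subjects n (%) is given: multicenter double-blind randomized placebo-controlled trial in adult smokers of 10 or more cigarettes per day, counting subjects with treatment-emergent adverse events per arm.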

Sequence of alpha4, beta2 (α4β2) receptors (P43681 29-627 limits assumed): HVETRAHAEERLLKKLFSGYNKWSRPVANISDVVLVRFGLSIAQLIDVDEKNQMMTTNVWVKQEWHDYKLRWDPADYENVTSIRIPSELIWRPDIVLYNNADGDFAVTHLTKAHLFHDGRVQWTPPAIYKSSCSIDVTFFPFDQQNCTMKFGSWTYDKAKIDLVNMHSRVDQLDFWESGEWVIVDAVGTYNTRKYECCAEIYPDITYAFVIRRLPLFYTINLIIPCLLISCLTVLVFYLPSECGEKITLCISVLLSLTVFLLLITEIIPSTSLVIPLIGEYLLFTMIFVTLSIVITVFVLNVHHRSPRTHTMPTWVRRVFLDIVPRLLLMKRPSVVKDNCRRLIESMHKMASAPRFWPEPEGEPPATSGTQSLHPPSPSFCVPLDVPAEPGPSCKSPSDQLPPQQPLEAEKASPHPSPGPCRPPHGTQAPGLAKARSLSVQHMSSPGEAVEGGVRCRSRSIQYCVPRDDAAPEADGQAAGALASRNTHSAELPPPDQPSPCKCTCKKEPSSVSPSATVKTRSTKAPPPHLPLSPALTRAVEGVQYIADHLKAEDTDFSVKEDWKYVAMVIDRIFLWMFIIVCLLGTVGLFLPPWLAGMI
Sequence of alpha4, beta2 (α4β2) receptors (P17787 26-502): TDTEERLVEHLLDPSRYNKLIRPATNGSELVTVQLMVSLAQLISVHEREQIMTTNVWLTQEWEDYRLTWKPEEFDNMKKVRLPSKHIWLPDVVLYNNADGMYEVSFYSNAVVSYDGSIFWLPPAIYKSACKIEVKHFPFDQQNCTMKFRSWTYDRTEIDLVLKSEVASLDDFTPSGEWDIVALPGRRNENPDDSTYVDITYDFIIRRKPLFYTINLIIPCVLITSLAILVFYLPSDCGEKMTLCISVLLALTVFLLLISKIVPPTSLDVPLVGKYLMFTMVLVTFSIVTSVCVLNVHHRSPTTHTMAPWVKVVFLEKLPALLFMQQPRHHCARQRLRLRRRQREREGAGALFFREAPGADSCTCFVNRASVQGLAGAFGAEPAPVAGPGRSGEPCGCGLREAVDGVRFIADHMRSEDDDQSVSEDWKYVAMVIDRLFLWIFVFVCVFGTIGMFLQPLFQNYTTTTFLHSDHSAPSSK

O=c1cccc2n1C[C@@H]1CNC[C@H]2C1 [cytisine, (−)-Cytisine]
TEAE: Abnormal dreams, subjects n (%) [6]: 4 (8%)
TEAE: At least 1 AE, subjects n (%) [6]: 29 (57%)
TEAE: Fatigue, subjects n (%) [6]: 1 (2%)
TEAE: Headache, subjects n (%) [6]: 1 (2%)
TEAE: Insomnia, subjects n (%) [6]: 3 (6%)
TEAE: Nausea, subjects n (%) [6]: 5 (10%)
TEAE: URTI, subjects n (%) [6]: 3 (6%)
TEAE: Abnormal dreams, subjects n (%) (1.5 mg TID (n = 52)): 4 (8%)
TEAE: At least 1 AE, subjects n (%) (1.5 mg TID (n = 52)): 20 (39%)
TEAE: Constipation, subjects n (%) (1.5 mg TID (n = 52)): 1 (2%)
TEAE: Fatigue, subjects n (%) (1.5 mg TID (n = 52)): 3 (6%)
TEAE: Headache, subjects n (%) (1.5 mg TID (n = 52)): 6 (12%)
TEAE: Insomnia, subjects n (%) (1.5 mg TID (n = 52)): 4 (8%)
TEAE: Nausea, subjects n (%) (1.5 mg TID (n = 52)): 1 (2%)
TEAE: URTI, subjects n (%) (1.5 mg TID (n = 52)): 5 (10%)
overall safety following dosing (1.5 mg or 3.0 mg treatment arms on both schedules): no safety concerns
TEAE: Abnormal dreams, subjects n (%) [7]: 7 (14%)
TEAE: At least 1 AE, subjects n (%) [7]: 23 (46%)
TEAE: Fatigue, subjects n (%) [7]: 2 (4%)
TEAE: Headache, subjects n (%) [7]: 1 (2%)
TEAE: Insomnia, subjects n (%) [7]: 4 (8%)
TEAE: Nausea, subjects n (%) [7]: 3 (6%)
TEAE: URTI, subjects n (%) [7]: 2 (4%)
TEAE: Abnormal dreams, subjects n (%) (3.0 mg TID (n = 50)): 3 (6%)
TEAE: At least 1 AE, subjects n (%) (3.0 mg TID (n = 50)): 21 (42%)
TEAE: Constipation, subjects n (%) (3.0 mg TID (n = 50)): 3 (6%)
TEAE: Fatigue, subjects n (%) (3.0 mg TID (n = 50)): 1 (2%)
TEAE: Headache, subjects n (%) (3.0 mg TID (n = 50)): 2 (4%)
TEAE: Insomnia, subjects n (%) (3.0 mg TID (n = 50)): 3 (6%)
TEAE: Nausea, subjects n (%) (3.0 mg TID (n = 50)): 3 (6%)
TEAE: URTI, subjects n (%) (3.0 mg TID (n = 50)): 3 (6%)
Serious AEs (ORCA-1, pooled Cytisinicline (n = 203)): 0
TEAE: Abnormal dreams, subjects n (%) (Pooled Cytisinicline (n = 203)): 18 (9%)
TEAE: At least 1 AE, subjects n (%) (Pooled Cytisinicline (n = 203)): 93 (46%)
TEAE: Constipation, subjects n (%) (Pooled Cytisinicline (n = 203)): 4 (2%)
TEAE: Fatigue, subjects n (%) (Pooled Cytisinicline (n = 203)): 7 (3%)
TEAE: Headache, subjects n (%) (Pooled Cytisinicline (n = 203)): 10 (5%)
TEAE: Insomnia, subjects n (%) (Pooled Cytisinicline (n = 203)): 14 (7%)
TEAE: Nausea, subjects n (%) (Pooled Cytisinicline (n = 203)): 12 (6%)
TEAE: URTI, subjects n (%) (Pooled Cytisinicline (n = 203)): 13 (6%)
Reduction in CO (expired) ([1]; 1.5 mg TID): 71%
Reduction in CO (expired) ([1]; 1.5 mg, titration (COM) schedule): 78%
Reduction in CO (expired) ([1]; 3.0 mg TID): 80%
OR, quit rate versus placebo ([1]; 3.0 mg TID, 4 weeks off treatment, Table 11): 5.0
OR, quit rate versus placebo ([1]; 3.0 mg TID, end of treatment (4 weeks), Tables 9-10): 6.3
Reduction in CO (expired) ([1]; 3.0 mg, titration (COM) schedule): 71%
serum cotinine levels ([1]; all cytisine-treated arms, Week 4): material reduction
Cigarette Score effect estimate (95% confidence interval), 3.0 mg TID versus pooled placebo ([1]; weighted analysis, diary from start of intervention): −11.8 (−24.4, 0.9)
binding to receptor subtype [2]: bind strongly and preferentially

CN1CCCC1c1cccnc1 (stereo not shown) [nicotine, Nicotine, reference compound]
binding to receptor subtype [2]: bind strongly and preferentially

c1cnc2cc3c(cc2n1)[C@@H]1CNC[C@H]3C1 [Chantix ®, varenicline]
Quit Rate at 4 Weeks Treatment ([3]; 4 weeks (ONCKEN)): 37.7%
Drug-placebo difference in quit rate ([3]; 4 weeks treatment (ONCKEN)): 21.4%
OR, quit rate versus placebo ([3]; 4 weeks treatment (ONCKEN)): 3.1
Drug-placebo difference in quit rate ([4]; 4 weeks off treatment (EAGLES)): 20.7%
OR, quit rate versus placebo ([4]; 4 weeks off treatment (EAGLES)): 3.5
Quit Rate at End of Treatment ([4]; 12 weeks (EAGLES)): 38.0%
CAR weeks 9-24 % (95% CI) ([4]; Region Non-U.S.): 27.9 (25.2-30.8) %
Versus placebo OR (95% CI), CAR weeks 9-24 ([4]; Region Non-U.S.): 2.80 (2.20-3.55)
Versus placebo OR (95% CI), CAR weeks 9-24 ([4]; Region U.S.): 2.66 (1.99-3.55)
CAR weeks 9-24 % (95% CI) ([4]; Region U.S., listed as Chantix®): 16%
CAR weeks 9-24 % (95% CI) ([4]; Region U.S., listed as Varenicline): 16.1 (14.0-18.4) %
overall quit rate at 24 weeks ([4]; all regions (EAGLES)): 22%
Drug-placebo difference in quit rate [4, 8]: 24.3%
OR, quit rate versus placebo [4, 8]: 4.0
Quit Rate at 4 Weeks Off Treatment ([4]; sustained quit (EAGLES)): 33.2%
Abnormal dreams [5]: 12.5%
Headache [5]: 12.7%
Insomnia [5]: 14.2%
Nausea [5]: 27.8%
Serious AEs [5]: 3.3%
